In brackets after ≈: the same amount, converted by molar mass. Where two headings read alike, the source gives them in different places.
How the values were obtained:
Type in all cases: cell-based
E. coli strains = experiment: MIC against E. coli strains (Table M7); settings: for MIC: Escherichia coli, ATCC25922, E. coli ATCC 25922
From the text: (§1) We have collected MIC data for a total of 50 novel macrolides that this platform has produced against over 21 unique strains of B. subtilis, E. coli, S. aureus, S. pneumoniae, and H. influenzae, including several multidrug-resistant strains, with a special focus on macrolide resistant mechanisms (vide supra). Azithromycin was included as a control macrolide. CLSI standard procedures for broth dilution MIC determination were used. […] These genotypes can be constitutive or inducible. The finding that C4-epi (unnatural) isomers of the “azaketolide” macrolide class have enhanced activities relative to C4 natural isomers is very exciting.

S. aureus strains = experiment: MIC against S. aureus strains (Table M7); settings: for MIC: Staphylococcus aureus
From the text: as §1

S. pneumoniae strains = experiment: MIC against S. pneumoniae strains (Tables M7, M8); settings: for MIC: Streptococcus pneumoniae
From the text: CLSI standard procedures for broth dilution MIC determination were used. […] These genotypes can be constitutive or inducible.

E. faecalis strains = experiment: MIC against E. faecalis strains (Table M8); settings: for MIC: Enterococcus faecalis, E. faecalis 29212
A. baumannii strains = experiment: MIC against A. baumannii strains (Table M8); settings: for MIC: Acinetobacter baumannii, BAA747, A. baumannii BAA747-1
K. pneumoniae strains = experiment: MIC against K. pneumoniae strains (Table M8); settings: for MIC: Klebsiella pneumoniae, K. pneumoniae 10031
H. influenzae strains = experiment: MIC against H. influenzae strains (Table M8); settings: for MIC: Haemophilus influenzae
From the text: as §1

[1] = ATCC29213, S. aureus ATCC 29213, read-out: MIC S. aureus (ATCC 29213)
[2] = S. aureus 183, read-out: MIC S. aureus (183)
[3] = S. aureus 506, read-out: MIC S. aureus (506)
[4] = S. aureus 1708, read-out: MIC S. aureus (1708)
[5] = USA300, S. aureus USA300, read-out: MIC S. aureus (USA300)
[6] = S. pneumoniae 160, read-out: MIC S. pneumonae (160)
[7] = S. pneumoniae 1509, read-out: MIC S. pneumoniae (1509)
[8] = S. pneumoniae 1533, read-out: MIC S. pneumoniae (1533)
[9] = S. pneumoniae 1537, read-out: MIC S. pneumoniae (1537)
[10] = S. pneumoniae 49619, read-out: MIC S. pneumoniae (49619)
[11] = H. influenzae 49247, read-out: MIC H. influenzae (49247)
[12] = H. influenzae 49766, read-out: MIC H. influenzae (49766)

Structure (SMILES) | MIC (E. coli strains) [µg/mL] | MIC (S. aureus strains; [1]) [µg/mL] | MIC (S. aureus strains; [2]) [µg/mL] | MIC (S. aureus strains; [3]) [µg/mL] | MIC (S. aureus strains; [4]) [µg/mL] | MIC (S. aureus strains; [5]) [µg/mL] | MIC (S. pneumoniae strains; [6]) [µg/mL] | MIC (S. pneumoniae strains; [7]) [µg/mL] | MIC (S. pneumoniae strains; [8]) [µg/mL] | MIC (S. pneumoniae strains; [9]) [µg/mL] | MIC (S. pneumoniae strains; [10]) [µg/mL] | MIC (E. faecalis strains) [µg/mL] | MIC (A. baumannii strains) [µg/mL] | MIC (K. pneumoniae strains) [µg/mL] | MIC (H. influenzae strains; [11]) [µg/mL] | MIC (H. influenzae strains; [12]) [µg/mL] | also measured
CC[C@H]1OC(=O)[C@H](Cc2cncs2)C(=O)[C@H](C)[C@@H](O[C@@H]2OC(C)CC(N(C)C)C2O)[C@](C)(OC)C[C@@H](C)CN[C@H](C)[C@H]2N(CCCCn3cc(-c4cccc(N)c4)nn3)C(=O)O[C@]12C (stereo partly drawn) [FSM-56216] | 32 (≈ 35.1 µM) | 32 (≈ 35.1 µM) | > 32 | > 32 | 16 (≈ 17.6 µM) | 32 (≈ 35.1 µM) | 2 (≈ 2.19 µM) | 32 (≈ 35.1 µM) | > 32 | > 32 | 1 (≈ 1.1 µM) | 8 (≈ 8.78 µM) | > 32 | 8 (≈ 8.78 µM) | 4 (≈ 4.39 µM) | 16 (≈ 17.6 µM) | –
C=CC[C@H]1NC[C@H](C)C[C@@](C)(OC)[C@H](O[C@@H]2OC(C)CC(N(C)C)C2O)[C@@H](C)C(=O)[C@@H](C)C(=O)O[C@H](CC)[C@@]2(C)OC(=O)N(CCCCn3cc(-c4cccc(N)c4)nn3)[C@H]12 (stereo partly drawn) [FSM-11044] | 32 (≈ 37.5 µM) | 1 (≈ 1.17 µM) | > 32 | > 32 | 1 (≈ 1.17 µM) | 1 (≈ 1.17 µM) | 0.125 (≈ 0.146 µM) | 1 (≈ 1.17 µM) | > 32 | > 32 | 0.125 (≈ 0.146 µM) | 0.25 (≈ 0.293 µM) | 32 (≈ 37.5 µM) | 8 (≈ 9.37 µM) | 2 (≈ 2.34 µM) | 8 (≈ 9.37 µM) | –
CC[C@H]1OC(=O)[C@H](C)C(=O)[C@H](C)[C@@H](O[C@@H]2OC(C)CC(N(C)C)C2O)[C@](C)(OC)CC(C)N[C@H](C)[C@H]2N(CCCCn3cc(-c4cccc(N)c4)nn3)C(=O)O[C@]12C (stereo partly drawn) [FSM-30690] | – | – | – | – | – | – | – | – | – | – | – | – | – | – | – | – | MIC E. coli (ATCC 25922) (E. coli strains; E. coli ATCC 25922): >32 µg/mL; MIC S. aureus (183) (S. aureus strains; S. aureus 183): >32 µg/mL; MIC S. aureus (506) (S. aureus strains; S. aureus 506): >32 µg/mL; MIC S. aureus (1708) (S. aureus strains; S. aureus 1708): >32 µg/mL; MIC S. aureus (ATCC 29213) (S. aureus strains; S. aureus ATCC 29213): >32 µg/mL; MIC S. aureus (USA300) (S. aureus strains; S. aureus USA300): >32 µg/mL; MIC S. pneumonae (160) (S. pneumoniae strains; S. pneumoniae 160): >32 µg/mL; MIC S. pneumoniae (1509) (S. pneumoniae strains; S. pneumoniae 1509): >32 µg/mL; MIC S. pneumoniae (1533) (S. pneumoniae strains; S. pneumoniae 1533): >32 µg/mL; MIC S. pneumoniae (1537) (S. pneumoniae strains; S. pneumoniae 1537): >32 µg/mL; MIC S. pneumoniae (49619) (S. pneumoniae strains; S. pneumoniae 49619): >32 µg/mL; MIC E. faecalis (29212) (E. faecalis strains): >32 µg/mL; MIC A. baumannii (BAA747-1) (A. baumannii strains; A. baumannii BAA747-1): >32 µg/mL; MIC K. pneumoniae (10031) (K. pneumoniae strains): >32 µg/mL; MIC H. influenzae (49247) (H. influenzae strains; H. influenzae 49247): >32 µg/mL; MIC H. influenzae (49766) (H. influenzae strains; H. influenzae 49766): >32 µg/mL
CC[C@H]1OC(=O)[C@H](C)C(=O)[C@H](C)[C@@H](O[C@@H]2OC(C)CC(N(C)C)C2O)[C@](C)(OC)C[C@@H](C)CN[C@H](CCO)[C@H]2N(CCCCn3cc(-c4cccc(N)c4)nn3)C(=O)O[C@]12C (stereo partly drawn) [FSM-11056] | > 32 | 8 (≈ 9.32 µM) | > 32 | > 32 | 8 (≈ 9.32 µM) | 32 (≈ 37.3 µM) | 1 (≈ 1.17 µM) | 0.5 (≈ 0.583 µM) | > 32 | > 32 | 0.125 (≈ 0.146 µM) | 2 (≈ 2.33 µM) | > 32 | 16 (≈ 18.6 µM) | 4 (≈ 4.66 µM) | 16 (≈ 18.6 µM) | –
CC[C@H]1OC(=O)[C@H](C)C(=O)[C@H](C)[C@@H](O[C@@H]2OC(C)CC(N(C)C)C2O)[C@](C)(OC)C[C@@H](C)CN[C@H](Cc2ccccc2)[C@H]2N(CCCCn3cc(-c4cccc(N)c4)nn3)C(=O)O[C@]12C (stereo partly drawn) [FSM-60353] | 32 (≈ 35.4 µM) | 0.5 (≈ 0.553 µM) | > 32 | > 32 | 0.5 (≈ 0.553 µM) | 0.5 (≈ 0.553 µM) | ≤ 0.0625 | 1 (≈ 1.11 µM) | 32 (≈ 35.4 µM) | 32 (≈ 35.4 µM) | ≤ 0.0625 | 0.25 (≈ 0.276 µM) | 32 (≈ 35.4 µM) | 8 (≈ 8.85 µM) | 2 (≈ 2.21 µM) | 8 (≈ 8.85 µM) | –
CC[C@H]1OC(=O)[C@H](Cc2cn[nH]c2)C(=O)[C@H](C)[C@@H](O[C@@H]2OC(C)CC(N(C)C)C2O)[C@](C)(OC)C[C@@H](C)CN[C@H](C)[C@H]2N(CCCCn3cc(-c4cccc(N)c4)nn3)C(=O)O[C@]12C (stereo partly drawn) [FSM-56192] | > 32 | > 32 | > 32 | > 32 | > 32 | > 32 | 8 (≈ 8.95 µM) | > 32 | > 32 | > 32 | 2 (≈ 2.24 µM) | 32 (≈ 35.8 µM) | > 32 | 16 (≈ 17.9 µM) | 8 (≈ 8.95 µM) | 32 (≈ 35.8 µM) | –
C=CC[C@@]1(OC)C[C@@H](C)CN[C@H](C)[C@H]2N(CCCCn3cc(-c4cccc(N)c4)nn3)C(=O)O[C@]2(C)[C@@H](CC)OC(=O)[C@H](C)C(=O)[C@@H](C)[C@H]1O[C@@H]1OC(C)CC(N(C)C)C1O (stereo partly drawn) [FSM-21367] | 4 (≈ 4.68 µM) | 8 (≈ 9.37 µM) | > 32 | > 32 | 16 (≈ 18.7 µM) | 8 (≈ 9.37 µM) | 0.125 (≈ 0.146 µM) | 8 (≈ 9.37 µM) | > 32 | > 32 | – | 2 (≈ 2.34 µM) | 16 (≈ 18.7 µM) | 4 (≈ 4.68 µM) | 1 (≈ 1.17 µM) | 4 (≈ 4.68 µM) | MIC S. pneumoniae (49619) (S. pneumoniae strains; S. pneumoniae 49619): 0.25 µg/mL (≈ 0.293 µM)
CC[C@H]1OC(=O)[C@H](C)C(=O)[C@H](C)[C@@H](O[C@@H]2OC(C)CC(N(C)C)C2O)[C@](CCO)(OC)C[C@@H](C)CN[C@H](C)[C@H]2N(CCCCn3cc(-c4cccc(N)c4)nn3)C(=O)O[C@]12C (stereo partly drawn) [FSM-21422] | 32 (≈ 37.3 µM) | > 32 | > 32 | > 32 | > 32 | > 32 | 4 (≈ 4.66 µM) | > 32 | > 32 | > 32 | 1 (≈ 1.17 µM) | 16 (≈ 18.6 µM) | > 32 | 8 (≈ 9.32 µM) | 8 (≈ 9.32 µM) | 16 (≈ 18.6 µM) | –
CC[C@H]1OC(=O)C(C)(F)C(=O)[C@H](C)[C@@H](O[C@@H]2OC(C)CC(N(C)C)C2O)[C@](C)(OC)CC(C)(F)CN[C@H](C)[C@H]2N(CCCCn3cc(-c4cccc(N)c4)nn3)C(=O)O[C@]12C (stereo partly drawn) [FSM-30704] | 32 (≈ 37 µM) | 2 (≈ 2.31 µM) | > 32 | > 32 | 2 (≈ 2.31 µM) | 4 (≈ 4.63 µM) | 0.25 (≈ 0.289 µM) | 1 (≈ 1.16 µM) | > 32 | > 32 | 0.25 (≈ 0.289 µM) | 0.5 (≈ 0.579 µM) | > 32 | 16 (≈ 18.5 µM) | 2 (≈ 2.31 µM) | 8 (≈ 9.26 µM) | –
